In patent publication US9499486B2, “Kinase inhibitor” (RESPIVERT LIMITED, priority 2014, dated 2016):

Legend:
p38 MAPKα = p38 MAPKα (Homo sapiens (Human), UniProt Q16539); assay: p38 MAPKα enzyme inhibition (Method 2), Z-LYTE FRET; format: biochemical
Description: The enzyme inhibitory activities of the compound disclosed herein are determined by FRET using synthetic peptides labelled with both donor and acceptor fluorophores (Z-LYTE, Invitrogen Ltd., Paisley, UK).
The inhibitory activities of test compounds against the p38 MAPKα isoform (MAPK14: Invitrogen) are evaluated indirectly by determining the level of activation/phosphorylation of the down-stream molecule, MAPKAP-K2. The p38 MAPKα protein (80 ng/mL, 2.5 μL) is mixed with the test compound (2.5 μL of either 4 μg/mL, 0.4 μg/mL, 0.04 μg/mL or 0.004 μg/mL) for 2 hr at RT. […] The mixture is incubated for 1 hr at RT. Development reagent (protease, 5 μL) is added for 1 hr prior to detection in a fluorescence microplate reader (Varioskan® Flash, ThermoFisher Scientific). […]
In all cases, the site-specific protease cleaves non-phosphorylated peptide only and eliminates the FRET signal. Phosphorylation levels of each reaction are calculated using the ratio of coumarin emission (donor) over fluorescein emission (acceptor), for which high ratios indicate high phosphorylation and low ratios indicate low phosphorylation levels.

B-Raf (V600E) = B-Raf (V600E) (Homo sapiens (Human), UniProt P15056, V600E); assay: KINOMEscan binding of B-Raf (V600E) to standard ligand
Excerpt: These assays may be conducted by DiscoverX (formerly Ambit; San Diego, Calif.).

Sequence of p38 MAPKα (Q16539 whole entry, looked up): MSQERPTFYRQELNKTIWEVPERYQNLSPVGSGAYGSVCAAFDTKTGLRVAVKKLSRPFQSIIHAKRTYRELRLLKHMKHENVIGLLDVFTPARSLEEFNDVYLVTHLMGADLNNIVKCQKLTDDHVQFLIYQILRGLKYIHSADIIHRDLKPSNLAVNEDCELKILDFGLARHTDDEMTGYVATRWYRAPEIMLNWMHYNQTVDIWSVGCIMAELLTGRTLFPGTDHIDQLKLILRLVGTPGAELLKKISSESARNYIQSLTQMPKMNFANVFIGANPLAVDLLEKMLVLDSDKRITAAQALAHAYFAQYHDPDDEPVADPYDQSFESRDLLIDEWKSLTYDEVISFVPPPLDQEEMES
Sequence of B-Raf (V600E) (P15056 whole entry V600E): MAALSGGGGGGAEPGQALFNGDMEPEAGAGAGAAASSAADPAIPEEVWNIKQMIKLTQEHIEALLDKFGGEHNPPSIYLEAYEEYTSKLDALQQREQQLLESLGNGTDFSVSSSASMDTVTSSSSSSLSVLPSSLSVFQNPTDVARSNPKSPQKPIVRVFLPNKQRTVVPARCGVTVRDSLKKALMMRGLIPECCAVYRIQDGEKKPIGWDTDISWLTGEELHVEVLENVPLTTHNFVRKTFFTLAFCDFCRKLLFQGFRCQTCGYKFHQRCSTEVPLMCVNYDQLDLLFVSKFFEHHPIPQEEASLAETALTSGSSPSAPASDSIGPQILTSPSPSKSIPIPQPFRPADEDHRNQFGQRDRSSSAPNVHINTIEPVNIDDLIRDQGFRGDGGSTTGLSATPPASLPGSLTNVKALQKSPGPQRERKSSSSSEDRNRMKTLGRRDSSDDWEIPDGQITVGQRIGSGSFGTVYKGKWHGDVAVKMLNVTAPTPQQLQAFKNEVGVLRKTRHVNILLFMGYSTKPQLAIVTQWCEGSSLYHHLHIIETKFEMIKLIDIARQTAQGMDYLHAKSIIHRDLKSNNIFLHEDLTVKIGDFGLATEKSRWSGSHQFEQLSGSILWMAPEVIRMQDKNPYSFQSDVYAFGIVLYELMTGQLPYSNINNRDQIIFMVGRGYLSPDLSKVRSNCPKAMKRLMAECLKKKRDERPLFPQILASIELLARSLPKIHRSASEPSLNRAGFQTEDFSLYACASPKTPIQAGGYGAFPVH

Q: How did the IC50 (p38 MAPKα) turn out when COc1cc(Nc2cc(Oc3ccc(NC(=O)Nc4cc(C(C)(C)C)cc(NS(C)(=O)=O)c4OC)c4ccccc34)ccn2)ccc1C(=O)O [Example 1, 4-((4-((4-(3-(5-(tert-Butyl)-2-methoxy-3-(methylsulfonamido)phenyl)ureido)naphthalen-1-yl)oxy)pyridin-2-yl)amino)-2-methoxybenzoic acid] was run?
A: 11 nM

Q: And the “effect on the binding of B-Raf (V600E) to its standard ligand” value (B-Raf (V600E))?
A: did not have any significant effect
